Targets include Histamine H2 receptor (Homo sapiens, UniProt P25021); Histamine H1 receptor (Homo sapiens, UniProt P35367); D(3) dopamine receptor (Homo sapiens, UniProt P35462); D(2) dopamine receptor (Homo sapiens, UniProt P14416); Vasopressin V1a receptor (Homo sapiens, UniProt P37288); D(1A) dopamine receptor (Homo sapiens, UniProt P21728); D(1B) dopamine receptor (Homo sapiens, UniProt P21918).

For the next experiment, the target named is T1, D(4) dopamine receptor (Homo sapiens, UniProt P21917).
T1 sequence (P21917 whole entry): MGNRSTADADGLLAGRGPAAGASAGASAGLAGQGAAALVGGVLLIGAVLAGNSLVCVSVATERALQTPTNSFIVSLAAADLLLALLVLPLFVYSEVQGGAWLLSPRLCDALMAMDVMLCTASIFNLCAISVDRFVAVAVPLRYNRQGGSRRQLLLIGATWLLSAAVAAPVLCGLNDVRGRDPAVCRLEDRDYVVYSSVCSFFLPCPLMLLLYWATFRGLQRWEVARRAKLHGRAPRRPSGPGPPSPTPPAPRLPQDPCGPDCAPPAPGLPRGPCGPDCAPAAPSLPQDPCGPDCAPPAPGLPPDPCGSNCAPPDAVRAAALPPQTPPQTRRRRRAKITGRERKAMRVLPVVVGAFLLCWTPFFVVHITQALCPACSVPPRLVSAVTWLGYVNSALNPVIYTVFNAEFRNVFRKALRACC

The target in experiment [1] is T2, 5-hydroxytryptamine receptor 1A (Homo sapiens, UniProt P08908).
T2 sequence (P08908 whole entry): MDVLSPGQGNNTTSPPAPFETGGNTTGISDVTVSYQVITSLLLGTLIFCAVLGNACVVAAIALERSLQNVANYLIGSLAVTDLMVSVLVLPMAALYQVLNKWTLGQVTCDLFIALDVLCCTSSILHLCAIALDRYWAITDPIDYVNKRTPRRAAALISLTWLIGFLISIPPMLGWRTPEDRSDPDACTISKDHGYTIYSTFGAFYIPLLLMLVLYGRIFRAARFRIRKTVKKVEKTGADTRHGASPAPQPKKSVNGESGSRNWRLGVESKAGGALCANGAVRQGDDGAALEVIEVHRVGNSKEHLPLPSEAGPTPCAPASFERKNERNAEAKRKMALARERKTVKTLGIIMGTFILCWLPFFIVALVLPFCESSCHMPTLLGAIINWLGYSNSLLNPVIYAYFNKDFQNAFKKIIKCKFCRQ

The target of experiment [2] is 5-hydroxytryptamine receptor 2A (Homo sapiens, UniProt P28223).
Sequence of 5-hydroxytryptamine receptor 2A (P28223 whole entry): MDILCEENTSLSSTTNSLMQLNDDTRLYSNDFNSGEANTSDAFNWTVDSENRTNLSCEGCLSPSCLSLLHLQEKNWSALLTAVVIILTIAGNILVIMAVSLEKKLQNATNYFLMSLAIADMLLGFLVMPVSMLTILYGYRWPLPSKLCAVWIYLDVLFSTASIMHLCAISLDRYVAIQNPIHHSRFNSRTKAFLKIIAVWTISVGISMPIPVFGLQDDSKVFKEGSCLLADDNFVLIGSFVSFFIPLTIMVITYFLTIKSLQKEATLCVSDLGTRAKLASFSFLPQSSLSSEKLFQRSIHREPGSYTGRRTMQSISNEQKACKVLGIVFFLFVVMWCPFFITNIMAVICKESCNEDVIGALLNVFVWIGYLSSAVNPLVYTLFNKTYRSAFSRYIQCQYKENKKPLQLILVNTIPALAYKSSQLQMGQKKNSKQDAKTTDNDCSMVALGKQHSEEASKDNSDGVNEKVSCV
Experiment [3] concerns the target Sodium-dependent dopamine transporter (Homo sapiens, UniProt Q01959).
The target in experiment [4] is 5-hydroxytryptamine receptor 7 (Homo sapiens, UniProt P34969).
Sequence of 5-hydroxytryptamine receptor 7 (P34969 whole entry): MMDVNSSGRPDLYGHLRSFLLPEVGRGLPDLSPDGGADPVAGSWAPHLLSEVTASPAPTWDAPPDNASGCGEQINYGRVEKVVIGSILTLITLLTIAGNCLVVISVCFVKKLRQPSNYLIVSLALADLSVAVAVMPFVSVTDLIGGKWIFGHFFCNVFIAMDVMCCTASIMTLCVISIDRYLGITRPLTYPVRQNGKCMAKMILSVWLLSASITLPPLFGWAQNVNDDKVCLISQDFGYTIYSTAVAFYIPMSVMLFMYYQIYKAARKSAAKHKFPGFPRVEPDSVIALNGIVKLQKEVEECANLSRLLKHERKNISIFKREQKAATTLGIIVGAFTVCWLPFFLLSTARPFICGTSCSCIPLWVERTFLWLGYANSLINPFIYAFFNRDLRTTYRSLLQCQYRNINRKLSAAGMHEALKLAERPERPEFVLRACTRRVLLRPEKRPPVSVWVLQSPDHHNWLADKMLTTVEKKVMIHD
Experiment [5] concerns the target 5-hydroxytryptamine receptor 6 (Homo sapiens, UniProt P50406).
In experiment [6] the target is 5-hydroxytryptamine receptor 1B (Homo sapiens, UniProt P28222).
Sequence of 5-hydroxytryptamine receptor 1B (P28222 whole entry): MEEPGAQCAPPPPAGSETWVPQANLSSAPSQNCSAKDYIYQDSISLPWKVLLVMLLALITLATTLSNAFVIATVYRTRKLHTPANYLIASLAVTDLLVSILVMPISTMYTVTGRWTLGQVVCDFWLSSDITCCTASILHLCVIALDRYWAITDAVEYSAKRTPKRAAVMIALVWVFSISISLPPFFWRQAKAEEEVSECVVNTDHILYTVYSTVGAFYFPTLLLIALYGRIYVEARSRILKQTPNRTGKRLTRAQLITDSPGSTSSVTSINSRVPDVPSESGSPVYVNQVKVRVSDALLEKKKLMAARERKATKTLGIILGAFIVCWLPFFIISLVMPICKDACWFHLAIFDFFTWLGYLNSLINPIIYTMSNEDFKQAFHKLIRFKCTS
The next experiment concerns the target T3, Adenosine receptor A3 (Homo sapiens, UniProt P0DMS8).
T3 sequence (P0DMS8 whole entry): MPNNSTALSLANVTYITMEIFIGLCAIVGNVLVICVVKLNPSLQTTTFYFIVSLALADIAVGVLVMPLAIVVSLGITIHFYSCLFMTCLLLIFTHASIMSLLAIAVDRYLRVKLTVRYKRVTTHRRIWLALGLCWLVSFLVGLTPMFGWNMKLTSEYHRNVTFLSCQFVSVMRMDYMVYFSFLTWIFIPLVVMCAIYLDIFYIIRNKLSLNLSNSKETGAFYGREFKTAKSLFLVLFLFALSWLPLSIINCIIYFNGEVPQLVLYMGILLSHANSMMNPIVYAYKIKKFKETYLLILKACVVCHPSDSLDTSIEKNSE

Sequence of Vasopressin V1a receptor (P37288 whole entry): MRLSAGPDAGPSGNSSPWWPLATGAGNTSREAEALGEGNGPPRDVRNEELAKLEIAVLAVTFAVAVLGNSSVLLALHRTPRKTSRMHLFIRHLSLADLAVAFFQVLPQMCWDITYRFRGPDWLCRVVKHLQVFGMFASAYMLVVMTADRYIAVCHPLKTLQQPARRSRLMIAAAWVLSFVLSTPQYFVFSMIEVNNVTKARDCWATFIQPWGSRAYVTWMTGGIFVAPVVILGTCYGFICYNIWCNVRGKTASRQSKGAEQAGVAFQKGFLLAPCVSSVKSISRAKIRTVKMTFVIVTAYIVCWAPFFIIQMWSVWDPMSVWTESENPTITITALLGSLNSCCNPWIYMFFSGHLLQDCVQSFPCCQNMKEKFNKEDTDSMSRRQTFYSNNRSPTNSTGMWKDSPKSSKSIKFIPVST
Sequence of Histamine H1 receptor (P35367 whole entry): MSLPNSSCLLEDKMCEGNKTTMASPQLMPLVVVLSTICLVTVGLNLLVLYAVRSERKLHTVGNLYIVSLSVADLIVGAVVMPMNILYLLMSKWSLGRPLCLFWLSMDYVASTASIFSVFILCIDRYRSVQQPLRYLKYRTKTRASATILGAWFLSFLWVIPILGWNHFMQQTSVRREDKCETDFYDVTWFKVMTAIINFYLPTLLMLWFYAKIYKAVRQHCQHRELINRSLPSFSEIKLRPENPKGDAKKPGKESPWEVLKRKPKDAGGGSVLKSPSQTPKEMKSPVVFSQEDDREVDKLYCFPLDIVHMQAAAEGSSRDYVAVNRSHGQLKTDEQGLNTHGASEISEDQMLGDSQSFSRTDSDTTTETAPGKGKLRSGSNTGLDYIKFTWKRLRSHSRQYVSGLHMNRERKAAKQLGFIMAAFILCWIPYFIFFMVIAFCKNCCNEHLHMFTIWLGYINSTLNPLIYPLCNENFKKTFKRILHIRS
Sequence of D(1B) dopamine receptor (P21918 whole entry): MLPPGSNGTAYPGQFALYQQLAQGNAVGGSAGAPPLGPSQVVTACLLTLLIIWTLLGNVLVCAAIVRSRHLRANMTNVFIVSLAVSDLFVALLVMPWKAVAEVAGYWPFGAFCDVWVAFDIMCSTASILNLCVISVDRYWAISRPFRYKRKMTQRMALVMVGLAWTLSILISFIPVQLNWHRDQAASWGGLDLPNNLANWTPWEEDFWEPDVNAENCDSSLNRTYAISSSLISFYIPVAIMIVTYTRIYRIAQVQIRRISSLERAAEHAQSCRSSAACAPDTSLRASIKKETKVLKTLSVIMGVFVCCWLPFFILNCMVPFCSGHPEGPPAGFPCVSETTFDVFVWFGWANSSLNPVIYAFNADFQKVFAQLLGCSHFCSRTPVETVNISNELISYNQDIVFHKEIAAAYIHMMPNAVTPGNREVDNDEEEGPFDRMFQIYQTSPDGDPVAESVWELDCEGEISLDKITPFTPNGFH
Sequence of Histamine H2 receptor (P25021 whole entry): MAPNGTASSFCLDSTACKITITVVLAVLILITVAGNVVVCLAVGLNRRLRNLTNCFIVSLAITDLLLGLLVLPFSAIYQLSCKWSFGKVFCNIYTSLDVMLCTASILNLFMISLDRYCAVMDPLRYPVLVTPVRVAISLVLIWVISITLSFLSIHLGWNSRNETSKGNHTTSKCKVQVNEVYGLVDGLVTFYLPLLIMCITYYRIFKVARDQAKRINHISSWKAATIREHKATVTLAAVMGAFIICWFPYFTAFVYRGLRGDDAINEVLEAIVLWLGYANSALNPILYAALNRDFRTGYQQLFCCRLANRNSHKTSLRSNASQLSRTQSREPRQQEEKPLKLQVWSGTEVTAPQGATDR
Sequence of D(3) dopamine receptor (P35462 whole entry): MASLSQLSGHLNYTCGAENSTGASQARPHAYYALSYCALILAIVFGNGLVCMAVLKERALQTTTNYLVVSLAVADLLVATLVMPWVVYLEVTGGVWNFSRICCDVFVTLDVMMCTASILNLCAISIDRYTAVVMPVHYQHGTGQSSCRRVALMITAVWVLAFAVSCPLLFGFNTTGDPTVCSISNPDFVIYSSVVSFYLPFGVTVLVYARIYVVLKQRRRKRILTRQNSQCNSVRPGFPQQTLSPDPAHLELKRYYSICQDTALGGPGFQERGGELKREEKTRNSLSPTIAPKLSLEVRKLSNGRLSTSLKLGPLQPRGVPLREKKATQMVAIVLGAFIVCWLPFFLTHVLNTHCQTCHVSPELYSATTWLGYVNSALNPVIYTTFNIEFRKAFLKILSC
Sequence of D(2) dopamine receptor (P14416 whole entry): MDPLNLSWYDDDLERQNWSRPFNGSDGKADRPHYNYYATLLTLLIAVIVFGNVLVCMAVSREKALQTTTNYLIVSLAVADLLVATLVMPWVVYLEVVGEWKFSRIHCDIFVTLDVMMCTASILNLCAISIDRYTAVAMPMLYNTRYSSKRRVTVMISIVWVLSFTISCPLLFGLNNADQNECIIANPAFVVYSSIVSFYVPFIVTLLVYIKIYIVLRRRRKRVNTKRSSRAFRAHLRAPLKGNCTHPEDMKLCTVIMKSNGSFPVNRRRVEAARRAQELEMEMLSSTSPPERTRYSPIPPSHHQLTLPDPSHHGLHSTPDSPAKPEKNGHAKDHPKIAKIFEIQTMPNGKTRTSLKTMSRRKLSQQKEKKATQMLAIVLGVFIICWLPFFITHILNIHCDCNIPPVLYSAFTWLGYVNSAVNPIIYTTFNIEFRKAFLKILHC
Sequence of D(1A) dopamine receptor (P21728 whole entry): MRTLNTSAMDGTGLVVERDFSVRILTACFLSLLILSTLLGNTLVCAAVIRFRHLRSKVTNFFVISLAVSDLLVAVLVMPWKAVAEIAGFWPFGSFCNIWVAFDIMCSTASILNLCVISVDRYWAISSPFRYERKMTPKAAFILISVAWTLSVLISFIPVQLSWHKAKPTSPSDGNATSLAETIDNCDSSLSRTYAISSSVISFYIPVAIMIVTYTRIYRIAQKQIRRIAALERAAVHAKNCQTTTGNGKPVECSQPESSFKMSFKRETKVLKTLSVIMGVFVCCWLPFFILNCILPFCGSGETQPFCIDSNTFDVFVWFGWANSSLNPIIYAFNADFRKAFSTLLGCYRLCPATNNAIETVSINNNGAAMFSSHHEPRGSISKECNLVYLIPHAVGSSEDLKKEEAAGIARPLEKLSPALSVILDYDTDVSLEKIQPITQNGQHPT
Sequence of 5-hydroxytryptamine receptor 6 (P50406 whole entry): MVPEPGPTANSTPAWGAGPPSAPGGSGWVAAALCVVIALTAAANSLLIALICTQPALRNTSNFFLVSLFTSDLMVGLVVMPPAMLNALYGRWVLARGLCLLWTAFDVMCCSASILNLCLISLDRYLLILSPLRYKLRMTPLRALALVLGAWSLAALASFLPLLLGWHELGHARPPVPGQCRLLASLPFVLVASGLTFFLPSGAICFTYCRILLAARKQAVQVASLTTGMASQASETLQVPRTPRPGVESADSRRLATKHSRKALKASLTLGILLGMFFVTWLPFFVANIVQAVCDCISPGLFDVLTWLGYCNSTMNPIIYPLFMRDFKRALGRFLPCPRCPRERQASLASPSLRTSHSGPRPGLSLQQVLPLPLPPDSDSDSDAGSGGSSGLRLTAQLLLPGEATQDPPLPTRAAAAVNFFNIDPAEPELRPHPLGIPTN

What is called IC50 is the concentration that inhibits the measured activity by half. A higher IC50 goes with weaker potency. Consider `N#Cc1ccc(CCOC(=O)NC2CCN(CCCC(c3ccc(F)cc3)c3ccc(F)cc3)CC2)cc1`, for which the IC50 at D(4) dopamine receptor turned out to be 543 nM; against Histamine H2 receptor, 368 nM; in [1], 985 nM; against Histamine H1 receptor, 454 nM; in experiment [2], 683 nM; on D(3) dopamine receptor it was 538 nM. Also, the 50% inhibitory concentration (IC50) against D(2) dopamine receptor came to 551 nM; in [3], 781 nM; in experiment [4], 998 nM; against Vasopressin V1a receptor it was 3650 nM; against D(1A) dopamine receptor, 376 nM; against D(1B) dopamine receptor, 513 nM. The IC50 in experiment [5] came out at 427 nM; in experiment [6], 3580 nM; against Adenosine receptor A3, 5980 nM.

Values taken from ChEMBL document CHEMBL1134625 (J Med Chem, 2001).
